Test results published in article PMC10733197, “Utilization of Rosuvastatin and Endogenous Biomarkers in Evaluating the Impact of Ritlecitinib on BCRP, OATP1B1, and OAT3 Transporter Activity” (Pharmaceutical Research, 2023).

Tests used:
OAT3 = target: T1, OAT3 (Homo sapiens, UniProt Q8TCC7); test: OAT3-mediated 3H-E3S uptake inhibition in transfected HEK293 cells; type: cell-based; settings: for Fraction Inhibited / Triggers Drug Interaction Cutoff / Cmax,u/IC50 ratio: OAT3; for Fraction Inhibited: Cmax,u/(Cmax,u + IC50) (Eq. 2); for Triggers Drug Interaction Cutoff: Cmax,u/IC50 cutoff 0.1 (FDA); for Triggers Drug Interaction Cutoff / Cmax,u/IC50 ratio: 0.02 (EMA); for Cmax,u/IC50 ratio: cutoff 0.1 (FDA), ritlecitinib 200 mg; for IC50: renal OAT3, E3S as substrate (0.1 µM per table footnote), 3 min, HEK293, mean ± SD, n = 3
T1 construct: expressed in transfected cells; host or cells: HEK293
T1 sequence (Q8TCC7 1-542): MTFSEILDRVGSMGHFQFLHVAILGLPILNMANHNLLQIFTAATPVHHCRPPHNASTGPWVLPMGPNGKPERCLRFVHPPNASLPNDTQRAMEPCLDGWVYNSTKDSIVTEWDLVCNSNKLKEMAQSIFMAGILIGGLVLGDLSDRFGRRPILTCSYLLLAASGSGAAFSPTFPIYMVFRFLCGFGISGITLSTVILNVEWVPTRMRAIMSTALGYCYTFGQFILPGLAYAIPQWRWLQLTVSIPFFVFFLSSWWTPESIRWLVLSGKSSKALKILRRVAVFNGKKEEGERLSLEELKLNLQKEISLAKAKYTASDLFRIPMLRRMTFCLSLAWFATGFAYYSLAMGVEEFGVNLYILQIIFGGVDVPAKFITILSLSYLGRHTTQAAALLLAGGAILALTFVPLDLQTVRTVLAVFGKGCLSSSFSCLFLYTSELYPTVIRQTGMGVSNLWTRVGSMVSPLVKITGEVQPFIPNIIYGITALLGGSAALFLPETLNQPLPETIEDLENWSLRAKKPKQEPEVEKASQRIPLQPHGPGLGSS
Experimental: Sources of human embryonic kidney (HEK) 293 cells expressing individual transfected human solute carriers (SLC), test substrates, and cell culture reagents, as well as detailed cell culture methods, incubations, and sample processing, have been described previously. SLC included hepatic OATP1B1, OATP1B3, and renal OAT1 and OAT3. […] Likewise, the uptake of non-labeled rosuvastatin (Biosynth, San Diego, CA) at 0.3—0.5 µM was determined for OATP1B1 and OATP1B3 at 1—3 min, and CP-I (Frontier Specialty Chemicals, Logan, UT) at 0.1 µM was determined for OATP1B1 and OATP1B3 at 10 min [14].
In all cases, ritlecitinib (0.018 to 1000 µM) and metabolite M2 (0.018 to 300 µM) was tested over a wide range of final concentrations dissolved in dimethyl sulfoxide (the final concentration of dimethyl sulfoxide in the assays was 1% v/v). For each transporter, the IC50 was estimated using a four-parameter logistic equation (Eq. 1) using GraphPad Prism software (GraphPad Software Inc, La Jolla, CA).1 %UptakeActivity=Bottom+(Top-Bottom)/1+10^(LogIC50-inhib*HillSlope)
At the end of the uptake and inhibition experiment, cellular accumulation of ^3H-PAH and ^3H-E3S was determined using liquid scintillation counting as previously described. Rosuvastatin uptake was determined using a tandem high performance liquid chromatography (LC)-mass spectrometry (MS) assay.
Assumes no substrate-dependent shift in IC50 versus PDA.^1 Each OAT form was singularly transfected in human embryonic kidney 293 cells.

CYP3A = settings: cited from earlier work
[1] = human, in vivo
Experimental: This was a Phase 1, 2-period fixed-sequence, multiple-dose, open-label study of the effect of ritlecitinib on the pharmacokinetics and renal clearance of a single, oral dose of rosuvastatin in healthy participants (Fig. 1). The safety and tolerability of rosuvastatin when coadministered with ritlecitinib was also evaluated.
In Period 1 on Day 1, following an overnight fast of at least 10 h, participants received a single oral administration of rosuvastatin 10 mg tablet. Period 1 was immediately followed by Period 2 with no washout. In Period 2 (coadministration), participants received oral ritlecitinib 200 mg once daily (QD) under non-fasting conditions for 7 days. On the morning of Day 8, a single dose of rosuvastatin 10 mg tablet was administered orally within approximately 5 min after administration of a ritlecitinib 200 mg dose under fasting conditions. On Days 9 and 10, participants continued to receive oral ritlecitinib 200 mg QD under non-fasting conditions.

CYP1A2 = settings: cited from earlier work
[2] = design: method as in data not published; settings: ref data not published, cited from earlier work

Row | Compound | % inhibition at the highest concentration tested (OAT3; OAT3 (E3S), highest concentration 300 µM) [%] | Fraction Inhibited (OAT3) | Triggers Drug Interaction Cutoff (OAT3) | Cmax,u/IC50 ratio (OAT3) | IC50 (OAT3) [µM] | Fraction Inhibited (OAT3; listed as ritlecitinib) | inhibition of CYP3A (CYP3A; classification in words) | contribution of CYP3A pathway to metabolism of ritlecitinib (CYP3A; ref data not published) [%] | serious AEs, severe AEs, dose reductions or discontinuations due to AEs [1] | inhibition of CYP1A2 (CYP1A2; classification in words) | contribution of CYP1A2 pathway to metabolism of ritlecitinib (CYP1A2; ref data not published) [%] | steady-state accumulation ratio of AUC ([2]; 200 mg QD regimen, FIH study) | half-life (arithmetic mean) ([2]; 200 mg single dose, first-in-human study) [h] | steady-state of PK reached at ([2]; QD regimens, FIH study) [days]
1 | C[C@H]1CC[C@@H](Nc2ncnc3[nH]ccc23)CN1C(=O)CCSC[C@H](N)C(=O)O [M2] | 43 | < 0.01 | No | < 0.01 | > 300 | – | – | – | – | – | – | – | – | –
2 | C=CC(=O)N1C[C@H](Nc2ncnc3[nH]ccc23)CC[C@@H]1C [Ritlecitinib, ritlecitinib] | – | 0.1 | Yes | 0.11 | 41 ± 3 | ≤ 0.1 | moderate inhibitor | < 25 | no serious adverse events | moderate inhibitor | < 25 | 1.8 | 1.75 | 4
